# Results reported in patent publication US20080248511A1, “METHODS TO QUENCH LIGHT FROM OPTICAL REACTIONS” (priority 2007, published 2008).
# How the values were obtained:
# Renilla luciferase = molecular target: T1, Renilla luciferase (Renilla reniformis, UniProt P27652); experiment: Non-detergent compound screen, Renilla luciferase (Example 6); type: biochemical; conditions: for remaining activity at 10 µM / remaining activity at 100 µM / remaining activity at 1000 µM / Retained Renilla Luciferase Value (%) / remaining activity at 23 µM / remaining activity at 153 µM: 0.5% Tergitol NP-9, 0.03% BDDABr; for remaining activity at 10 µM / remaining activity at 100 µM / remaining activity at 1000 µM / remaining activity at 23 µM / remaining activity at 153 µM: read-out: Retained Renilla Luciferase Value (%)
# T1 sequence (P27652 1-311): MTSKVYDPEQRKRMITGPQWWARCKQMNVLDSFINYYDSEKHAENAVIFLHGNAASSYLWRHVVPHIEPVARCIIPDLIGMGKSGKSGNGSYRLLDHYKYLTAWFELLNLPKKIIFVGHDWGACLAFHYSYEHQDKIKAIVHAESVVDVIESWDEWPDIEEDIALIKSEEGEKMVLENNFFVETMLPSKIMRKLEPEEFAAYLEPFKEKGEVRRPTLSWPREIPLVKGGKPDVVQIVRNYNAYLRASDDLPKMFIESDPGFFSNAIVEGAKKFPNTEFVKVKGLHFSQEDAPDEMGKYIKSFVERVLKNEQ
# Protocol: (§1) Each compound was diluted into 200 mM MOPS pH 6.7, 4 μM MgSO4, 1 mM CDTA, 0.5% Tergitol NP-9, 0.05% Mazu-DF-204, 0.03% BDDABr, 30 mM thiourea, 1 mM bis-(2-mercaptoethylsulfone) (BMS), 4 μM CoA, and 1 μM 5-fluoroluciferin. Just prior to the luciferase reaction, 0.1% Prionex® (Pentapharm) and 2.9 μM coelenterazine-h (Promega) were added to each solution.
# (§2) The firefly luciferase and Renilla luciferase enzymes were diluted as described in Examples 3 and 5. The luciferase reactions were initiated by adding 50 μl of the firefly luciferase and Renilla luciferase enzyme solution to 50 μl of reagent solution. The reactions were performed as described above. The retained Renilla and firefly luciferase-mediated luminescence and selectivity values for each inhibitor tested are listed in Table 6.
# firefly luciferase = firefly luciferase (Photinus pyralis, UniProt P08659); experiment: Non-detergent compound screen, firefly luciferase (Example 6); type: biochemical; conditions: 0.5% Tergitol NP-9, 0.03% BDDABr; for remaining activity at 10 µM / remaining activity at 100 µM / remaining activity at 1000 µM / remaining activity at 23 µM / remaining activity at 153 µM: read-out: Retained Firefly Luciferase Value (%); for remaining activity at 23 µM: inhibitor 23 μM; for remaining activity at 153 µM: inhibitor 153 μM
# Chain of firefly luciferase (P08659 whole entry): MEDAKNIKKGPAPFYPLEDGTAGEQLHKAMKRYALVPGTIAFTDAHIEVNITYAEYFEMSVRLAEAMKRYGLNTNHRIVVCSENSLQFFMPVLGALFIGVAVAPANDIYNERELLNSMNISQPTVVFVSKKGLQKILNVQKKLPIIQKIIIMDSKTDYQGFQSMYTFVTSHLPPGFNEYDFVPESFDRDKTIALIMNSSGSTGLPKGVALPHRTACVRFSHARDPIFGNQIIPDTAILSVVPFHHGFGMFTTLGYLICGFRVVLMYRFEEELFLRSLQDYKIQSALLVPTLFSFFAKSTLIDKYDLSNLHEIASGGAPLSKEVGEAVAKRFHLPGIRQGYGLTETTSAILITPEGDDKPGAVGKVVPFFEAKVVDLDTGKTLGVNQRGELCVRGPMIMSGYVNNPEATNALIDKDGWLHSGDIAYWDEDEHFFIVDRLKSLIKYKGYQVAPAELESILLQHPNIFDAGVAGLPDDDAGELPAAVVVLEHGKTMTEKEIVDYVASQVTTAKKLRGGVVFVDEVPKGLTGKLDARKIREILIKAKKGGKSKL
# Protocol: as §1, §2
SMILES,"inhibitor of Renilla luciferase, grade in words (Renilla luciferase)",Selectivity Value (Renilla luciferase; inhibitor 10 μM),remaining activity at 10 µM (Renilla luciferase; inhibitor 10 μM),Selectivity Value (Renilla luciferase; inhibitor 100 μM),remaining activity at 100 µM (Renilla luciferase; inhibitor 100 μM),Selectivity Value (Renilla luciferase; inhibitor 1000 μM),remaining activity at 1000 µM (Renilla luciferase; inhibitor 1000 μM),remaining activity at 10 µM (firefly luciferase; inhibitor 10 μM),remaining activity at 100 µM (firefly luciferase; inhibitor 100 μM),remaining activity at 1000 µM (firefly luciferase; inhibitor 1000 μM),Selectivity Value (Renilla luciferase; inhibitor 23 μM),remaining activity at 23 µM (Renilla luciferase; inhibitor 23 μM),Selectivity Value (Renilla luciferase; inhibitor 153 μM),remaining activity at 153 µM (Renilla luciferase; inhibitor 153 μM),remaining activity at 23 µM (firefly luciferase),remaining activity at 153 µM (firefly luciferase),also measured
"COc1ccc(CNC(=O)/C=C/c2ccc3c(c2)c(CCN(C)C)cn3Cc2ccccc2)cc1 [Compound 3055, (E)-3-(1-benzyl-3-(2-(dimethylamino)ethyl)-1H-indol-5-yl)-N-(4-methoxybenzyl)acrylamide]",inhibitors of Renilla luciferase,1.2,85%,2.2,44%,5.0,20%,100%,98%,99%,–,–,–,–,–,–,–
"CCCCCCCC[N+](C)(C)CCc1c[nH]c2ccc(/C=C/C(=O)NCc3ccc(OC)cc3)cc12.[I-] [Compound 3070, (E)-N-(2-(5-(3-(4-methoxybenzylamino)-3-oxoprop-1-enyl)-1H-indol-3-yl)ethyl)-N,N-dimethyloctan-1-ammonium iodide]",excellent inhibitors of Renilla luciferase,3.3,–,16,–,78.2,–,–,–,–,–,–,–,–,–,–,Retained Renilla Luciferase Value (%) (Renilla luciferase; inhibitor 10 μM): 30%; Retained Renilla Luciferase Value (%) (Renilla luciferase; inhibitor 100 μM): 6%; Retained Renilla Luciferase Value (%) (Renilla luciferase; inhibitor 1000 μM): 1.1%; Retained Firefly Luciferase Value (%) (firefly luciferase; inhibitor 10 μM): 99%; Retained Firefly Luciferase Value (%) (firefly luciferase; inhibitor 100 μM): 96%; Retained Firefly Luciferase Value (%) (firefly luciferase; inhibitor 1000 μM): 86%
"COc1ccc(CNC(=O)/C=C/c2ccc3c(ccc[n+]3C)c2)cc1.[I-] [Compound 3061, (E)-6-(3-(4-methoxybenzylamino)-3-oxoprop-1-enyl)-1-methylquinolinium iodide]",inhibitors of Renilla luciferase,1.1,96%,1.8,85%,2.3,36%,103%,100%,82%,–,–,–,–,–,–,–
"COc1ccc(CNC(=O)COc2ccc3[nH]cc(CCN(C)C)c3c2)cc1 [Compound 3031, 2-(3-(2-(dimethylamino)ethyl)-1H-indol-5-yloxy)-N-(4-methoxybenzyl)acetamide]",suitable inhibitors of Renilla luciferase,–,–,–,–,1.4,66.5%,–,–,89%,1,96%,0.99,90%,96%,89%,–
"COc1ccc(CNC(=O)/C=C/c2ccc3ncccc3c2)cc1 [Compound 3046, (E)-N-(4-methoxybenzyl)-3-(quinolin-6-yl)acrylamide]",inhibitors of Renilla luciferase,1.0,96%,1.3,78%,3.4,24.5%,100%,99%,83%,–,–,–,–,–,–,–
"COc1cc(CNC(=O)/C=C/c2ccc3[nH]cc(CCN(C)C)c3c2)cc(OC)c1OC [Compound 3072, (E)-3-(3-(2-(dimethylamino)ethyl)-1H-indol-5-yl)-N-(3,4,5-trimethoxybenzyl)acrylamide]",inhibitors of Renilla luciferase,1,101%,1.1,95%,1.8,55.2%,101%,101%,101%,–,–,–,–,–,–,–
"COc1ccc(CNC(=O)/C(C#N)=C/CCCCCCCBr)cc1 [Compound 3059, (E)-10-bromo-2-cyano-N-(4-methoxybenzyl)dec-2-enamide]",suitable inhibitors of Renilla luciferase,–,–,–,–,1.07,94.6%,–,–,101%,1.02,99%,1.05,96%,101%,101%,–
"COc1ccc(CNC(=O)/C=C/c2ccc3[nH]cc(CCN(C)C)c3c2)cc1 [Compound 3068, (E)-3-(3-(2-(dimethylamino)ethyl)-1H-indol-5-yl)-N-(4-methoxybenzyl)acrylamide]",excellent inhibitors of Renilla luciferase,2.5,40%,10.2,10%,48.6,2.1%,101%,102%,102%,–,–,–,–,–,–,–
"COc1ccc(CNC(=O)/C=C/c2ccc3[nH]cc(CN(C)C)c3c2)cc1 [Compound 3067, (E)-3-(3-((dimethylamino)methyl)-1H-indol-5-yl)-N-(4-methoxybenzyl)acrylamide]",excellent inhibitors of Renilla luciferase,1.3,79%,2.9,34%,14.3,7%,100%,99%,100%,–,–,–,–,–,–,–
"C=C(C(=O)NCc1ccc(OC)cc1)c1ccc2ncccc2c1 [Compound 3053, N-(4-methoxybenzyl)-2-(quinolin-6-yl)acrylamide]",suitable inhibitors of Renilla luciferase,–,–,–,–,1.1,84.7%,–,–,91%,1.1,95%,1.1,90%,100%,97%,–
"COc1ccc(CNC(=O)/C=C/c2ccc3[nH]ccc3c2)cc1 [Compound 3056, (E)-3-(1H-indol-5-yl)-N-(4-methoxybenzyl)acrylamide]",inhibitors of Renilla luciferase,1.1,93%,1.3,79%,2.7,32.6%,101%,100%,89%,–,–,–,–,–,–,–
"COc1ccc(CNC(=O)/C=C/c2ccc3oc(=O)cc(C)c3c2)cc1 [Compound 3057, (E)-N-(4-methoxybenzyl)-3-(4-methyl-2-oxo-2H-chromen-6-yl)acrylamide]",suitable inhibitors of Renilla luciferase,–,–,–,–,1.3,77.5%,–,–,102%,1,100%,1.1,93%,100%,98%,–
